{
  "source": "patent US12102643B2",
  "about": "“Aqueous pharmaceutical formulation of hydrocortisone sodium phosphate and monothioglycerol” (ANTARES PHARMA, INC., priority 2022, dated 2024)",
  "key": {"[1]": {"assay": "Room temperature stability of crystalline as compared to amorphous drug substance (water content, Karl Fischer)", "type": "physicochemical", "conditions": "for Assay / Total Impurities: Room temperature", "from_the_text": "The Drug Substance (DS) Hydrocortisone Sodium Phosphate (HSP) is a sodium salt of phosphate ester of hydrocortisone. The high-water solubility of HSP enables the development of aqueous injectable solutions. The DS meets the requirements of USP monograph, “Hydrocortisone sodium phosphate, USP,” except for loss on drying (LOD) specification, instead the Karl Fischer method is used to test water content which meets the British Pharmacopoeia specification. This is because the crystalline form obtained through the manufacturing process is a crystalline hydrate. To meet the USP LOD specification of NMT 5%, the manufacturing process would need to involve a lyophilization step which leads to the formation of an amorphous form of HSP. […] The water content test method utilizes the British Pharmacopoiea (BP) HSP monograph semi-micro water content method instead of the less specific USP HSP monograph water content Loss on Drying method. […]"}, "[2]": {"assay": "Stability study of HCP prototype formulations in PFS at 25° C. and 40° C. (appearance, pH, assay and related substances by stability indicating HPLC)", "conditions": "accelerated storage 40° C., effect of pH"}, "[3]": {"assay": "Genotoxicity assessment (ICH M7)"}, "[4]": {"assay": "Forced degradation of hydrocortisone sodium phosphate API under stress conditions (0.1 N HCl, 0.1 N NaOH, dry heat)", "type": "physicochemical", "conditions": "3 stress conditions: 0.1 N HCl, qualitative", "description": "To develop this method, Hydrocortisone sodium phosphate API was kept under stress conditions. These stress conditions included treatment with 0.1 N HCl, 0.1 N NaOH and dry heat. This was performed to investigate the nature of API and its compatibility with the stress conditions. It also helped generate degradation products to assess the specificity of the HPLC method under development. Information on degradation products and the conditions used to generate them was used to optimize the method for better resolution of such degradation products on chromatogram. FIGS. 3A-3C show chromatograms of HCP under stress conditions.\nThe proportions in which the degradants formed depended on the stress condition. Stress studies performed on the API were done for qualitative purpose only."}},
  "data": [
    {"compound": "C[C@]12CCC(=O)C=C1CC[C@@H]1[C@@H]2[C@@H](O)C[C@@]2(C)[C@H]1CC[C@]2(O)C(=O)COP(=O)(O)O", "note": "[Hydrocortisone Sodium Phosphate]", "values": [
      {"measurement": "Assay", "setting": "[1]; Time 0", "result": 100.9, "unit": "%"},
      {"measurement": "Total Impurities", "setting": "[1]; Time 0", "result": 0.00, "unit": "%"},
      {"measurement": "Assay", "setting": "[1]; Time 3 mo.", "result": 101.4, "unit": "%"},
      {"measurement": "Total Impurities", "setting": "[1]; Time 3 mo.", "result": 0.06, "unit": "%"},
      {"measurement": "Assay", "setting": "[1]; Time 6 mo.", "result": 99.5, "unit": "%"},
      {"measurement": "Total Impurities", "setting": "[1]; Time 6 mo.", "result": 0.00, "unit": "%"}
    ]},
    {"compound": "C[C@]12CCC(=O)C=C1CC[C@@H]1[C@@H]2[C@@H](O)C[C@@]2(C)[C@H]1CC[C@]2(O)C(=O)COP(=O)(O)O", "note": "[Hydrocortisone sodium phosphate]", "values": [
      {"measurement": "susceptibility to hydrolysis", "setting": "[2]", "result": "prone to general acid-catalyzed hydrolysis at pH<7.5"},
      {"measurement": "genotoxicity assessment", "setting": "[3]", "result": "not a genotoxic product"}
    ]},
    {"compound": "C[C@]12CCC(=O)C=C1CC[C@@H]1[C@@H]2[C@@H](O)C[C@@]2(C)[C@H]1CC[C@]2(O)C(=O)COP(=O)([O-])[O-].[Na+].[Na+]", "values": [
      {"measurement": "Assay", "setting": "[1]; Time 0", "result": 97.8, "unit": "%"},
      {"measurement": "Total Impurities", "setting": "[1]; Time 0", "result": 0.20, "unit": "%"},
      {"measurement": "Assay", "setting": "[1]; Time 3 mo.", "result": 99.0, "unit": "%"},
      {"measurement": "Total Impurities", "setting": "[1]; Time 3 mo.", "result": 1.1, "unit": "%"},
      {"measurement": "Assay", "setting": "[1]; Time 6 mo.", "result": 96.5, "unit": "%"},
      {"measurement": "Total Impurities", "setting": "[1]; Time 6 mo.", "result": 1.5, "unit": "%"}
    ]},
    {"compound": "C[C@]12CCC(=O)C=C1CC[C@@H]1[C@@H]2[C@@H](O)C[C@@]2(C)[C@H]1CC[C@]2(O)C(=O)COP(=O)(O)O", "note": "[hydrocortisone sodium phosphate]", "values": [
      {"measurement": "hygroscopicity", "setting": "[1]; room temperature", "result": "highly hygroscopic"},
      {"measurement": "stability compared to crystalline form", "setting": "[1]; room temperature", "result": "not stable as compared to crystalline form"}
    ]},
    {"compound": "Hydrocortisone sodium phosphate", "values": [
      {"measurement": "forced degradation outcome", "setting": "[4]", "result": "formation of Hydrocortisone, other common degradants"}
    ]}
  ]
}
